{
  "source": "patent US20150313934A1",
  "about": "“Use of PVP-Iodine Liposomes for Treatment of Herpes” (priority 2003, published 2015)",
  "key": {"[1]": {"system": "Human ciliated epithelium cells", "description": "The toleration of liposomal PVP-iodine solutions for nasal applications was studied by investigating the influence of different test substances on ciliated epithelium cells, the most sensible cells of the mucous membrane. A cytotoxic damage of these cells which would cause a restriction of the niucoclliar clearance can. be determined by a detectable decrease of the ciliary vibration.\nHuman ciliated epithelium cells were analysed by an in-vitro method which enables the determination of the ciliary activity or ciliary vibration. The corresponding cells were exposed and incubated with 100 je.I test substance at a temperature of 37 C. After an incubation period of 5 minutes the ciliary vibration, was measured.\nBy using this in-vltro method a nutriant solution (Dulbeco) as standard, a 0.2% chlorohexidine solution (typical antiseptic agent), conventional polyvidone iodine solutions (Betaisodona) .of different concentrations (5.0%, 2.5% and 1.25% PVP-iodine) and a liposomal solution containing 4.5% of PVP-iodine were tested."}, "human viruses": {"system": "human viruses", "settings": "aqueous solution mixed with viral suspensions; cited from earlier work"}},
  "data": [
    {"compound": "N=C(NCCCCCCNC(=N)NC(=N)Nc1ccc(Cl)cc1)NC(=N)Nc1ccc(Cl)cc1", "note": "[chlorohexidine]", "values": [
      {"measurement": "ciliary activity / ciliary vibration", "setting": "[1]", "value": "decrease of the measured ciliary vibration"}
    ]},
    {"compound": "poly(1-vinyl-2-pyrrolidin-2-on)-iodine complex [PVP-iodine]", "values": [
      {"measurement": "antiviral effect on viral suspensions", "setting": "human viruses", "value": "effective antiviral compound"}
    ]}
  ]
}
